Tests used:
RAW 264.7 cells = test: CCK8 cell viability assay; assay type: cell-based, mouse; conditions: 100 μM, 24 h
Procedure: (§1) RAW 264.7 cells were plated in a 96-well plate and treated with each compound (0, 25 μM, 50 μM and 100 μM) for 24 h. The viability of cells was tested by CCK8 assay. Data from three times independent experiments were expressed as means±SD. *P<0.05 compared with the control group for compound 3a-3j.
RAW 264.7 cells were plated in a 96-well plate and treated with each compound (0, 25 μM, 50 μM and 100 μM) for 24 h. The viability of cells was tested by CCK8 assay. Data from three times independent experiments were expressed as means±SD. *P<0.05 compared with the control group for compound 3k-3t.
RAW 264.7 cells were plated in a 96-well plate and treated with each compound (0, 25 μM, 50 μM and 100 μM) for 24 h. The viability of cells was tested by CCK8 assay. Data from three times independent experiments were expressed as means±SD. *P<0.05 compared with the control group for compound 3u-3ad.
as §1, with “3ae-3ag′.” for “3a-3j.”
Cell Viability Assay The CCK8 assay was used to evaluate the effect of each flavan-3-ol on the viability of RAW264.7 cells. Cells were plated into 96-well plates at a density of 2×10^5 cells/well in medium and cultured overnight. For formal experiments, cells were treated with different concentrations of flavan-3-ols (25, 50, and 100 μM). After 24 h, 20 μl CCK8 solution (cat #A311-01/02, Vazyme Biotech Co., Ltd., Nanjing, China) was added into the medium and incubated for 45 min. The absorbance was measured at 450 nm.
To evaluate the anti-inflammatory effects of these newly synthesized flavan-3-ols, RAW 264.7 cells (mouse monocyte/macrophage cell) were used as the in vitro model. First, CCK-8 (Cell Counting Kit-8) assay was performed to test the effects of these newly synthesized flavan-3-ols on cell viability (FIG. 9a-d). RAW 264.7 cells were treated with the newly synthesized flavan-3-ols ranging from 25 to 100 μM for 24 h. As shown in […], treatment with each compound at 25 and 50 μM for 24 h had no effect on the cell viability of RAW 264.7 cell. […] Therefore, the final concentration of each compound used in the following experiments were no more than 100 μM, and compound concentrations at 25 and 50 μM were used in the further experiments.

IL-1β = test: ELISA of IL-1β secretion from LPS-stimulated RAW 264.7 cells; assay type: cell-based, mouse; conditions: compound 50 μM 24 h, then LPS 1 μg/mL 2 h (FIG. 8)
Procedure: RAW 264.7 cells were pretreated with each compound (50 μM) for 24 h followed by LPS (1 μg/mL) stimulation for another 2 h. The concentrations of IL-1β in RAW 264.7 cell culture supernatants were measured by ELISA kits and the inhibition rate of compound on the secretion of each pro-inflammatory cytokine was calculated. Data from three independent experiments were expressed as means±SD. *P<0.05, **P<0.01 compared with LPS-stimulated group.
Cell culture The RAW 264.7 cell line was purchased from the Cell Bank of Shanghai Institute of Biochemistry & Cell Biology at the Chinese Academy of Sciences (Shanghai, China) and cultured in DMEM supplemented with 10% (v/v) fetal bovine serum (FBS), 100 U/ml penicillin and 100 […], in a stable environment with 5% CO2 at 37° C. Before used in the following in vitro experiments, RAW 264.7 cells were pretreated with synthesized flavan-3-ol (25, 50 μM) for 24 h followed by LPS (1 μg/mL) stimulation for another 2 h.
Enzyme-Linked Immunosorbent Assay (ELISA) RAW 264.7 cells were treated with these synthesized flavan-3-ols (25, 50 μM) for 24 h followed by LPS (1 μg/mL) stimulation for another 2 h and the culture supernatant was collected. The concentrations of IL-1β, IL-6 and TNF-α in the culture supernatant of RAW 264.7 cells were determined according to the manufacturer's instructions of the Duo-set enzyme linked immune sorbent assay kits, purchased from R&D Systems Co. Ltd. (Minneapolis, MN, USA).
The increased pro-inflammatory cytokines production in RAW 264.7 cells has been reported to play an influential role in the inflammation response. To evaluate the anti-inflammatory effects of these flavan-3-ols in vitro, ELISA kits were employed to investigate their effects on the LPS (lipopolysaccharide)-induced pro-inflammatory cytokines production of RAW 264.7 cells. After treating with the flavan-3-ols (25 and 50 μM) and stimulated by LPS, the levels of three main pro-inflammation cytokines including IL-1β ([…]), IL-6 (interleukin-6), and TNF-α (tumor necrosis factor-α) in culture supernatant from RAW 264.7 cells were measured by ELISA kits, and then the inhibition rates of the flavan-3-ols on the secretion of each pro-inflammatory cytokine were calculated by the formula shown as follows.
[formula] In this formula, “L” refers to “the pro-inflammatory cytokine level in cell culture supernatant of LPS-induced group (L)” and “Lc” refers to “the pro-inflammatory cytokine level in cell culture supernatant of compound-treated group (Lc)”. Using this calculation, the reduced levels of pro-inflammation cytokines in the compound treated group would give higher values, which reflect higher inhibition rates.
FIG. 4a-c show the effect of flavan-3-ols on pro-inflammatory cytokine secretion in vitro. RAW 264.7 cells were pretreated with each compound (25, 50 μM) for 24 h followed by LPS (1 μg/mL) stimulation for another 2 h. The concentrations of IL-1β, IL-6, TNF-α in RAW 264.7 cell culture supernatants were measured by ELISA kits and the inhibition rate of compound on the secretion of each pro-inflammatory cytokine was calculated.

[1] = test system: LPS-stimulated RAW 264.7 cells; test: RNA-sequencing analysis with GO and KEGG enrichment; assay type: cell-based, mouse; conditions: for inflammation-related genes downregulated: KEGG-classified inflammation-related genes
Procedure: RNA-sequencing analysis RAW 264.7 cells were treated with each flavan-3-ol (25, 50 μM) for 24 h followed by LPS (1 μg/mL) stimulation for another 2 h. Cells were collected and then directly prepared for cDNAs amplification and RNA-Seq library construction. Total RNA was isolated with TRIzol reagent from each group. A complementary DNA library was prepared and sequencing was performed according to the Illumina standard protocol developed by Suzhou GENEWIZ Biological Technology Co., Ltd. (https://www.genewiz.com). […] After filtering, reference genome and gene model annotation files were downloaded from a genome website browser (NCBI/UCSC/Ensembl). Indexes of the reference genome were built using Bowtie v2.0.6 and paired-end clean reads were aligned to the reference genome using TopHat v2.0.9. Bowtie was used for a BWT (Burrows-Wheeler Transformer) algorithm for mapping reads to the genome and Tophat can generate a database of splice junctions based on the gene model annotation file and thus achieve a better mapping result than other non-splice mapping tools. For the quantification of gene expression level, HTSeq V0.6.1 was used to count the read numbers mapped for each gene. The RPKM of each gene was calculated based on the gene read counts mapped to this gene. A differential expression analysis was performed using the DESeq R package (1.10.1). For clustering, the inventors clustered different samples to see the correlation using hierarchical clustering distance method with the function of heatmap, SOM (Self-organization mapping) and k means using silhouette coefficient to adapt the optimal classification with default parameter in R. The complete RNA-seq datasets in this manuscript captioned has been deposited at GEO database (http://www.ncbi.nlm.nih.gov/geo/) under accession ID GSE181052.
Gene ontology (GO) and KEGG enrichment analysis GO enrichment analysis of differentially expressed genes was implemented by the GOseq R Package, in which gene length bias was corrected. GO analysis was performed with the DAVID online tool (https://david.ncifcrf.gov/). Top GO categories were selected according to the P-values. Pathways of differentially expressed genes were analyzed by the KEGG database (http://www.kegg.jp/kegg/). The inventors used KOBAS software to test the statistical enrichment of differential expression genes in KEGG pathways.
RNA-seq analysis of downstream genes regulated by flavan-3-ols. […] RNA-seq analysis was performed to further study the effects of compounds 3m, 3o, 3p, 3ae and 3ag on gene transcriptional pathways related to inflammation. RAW 264.7 cells were used in the RNA-seq analysis, in which cells were pretreated with each compound (50 μM) for 24 h followed by LPS (1 μg/mL) stimulation for another 2 h. […] Next, the inventors focused on genes related to inflammatory reactions and inflammation-related diseases (inflammation-related genes) based on the gene and pathway classification of Kyoto Encyclopedia of Genes and Genomes (KEGG database).
To further analyze the functional distribution of differentially-expressed genes in relation to different biological processes, cellular components and molecular functions, gene ontology (GO) enrichment analysis was performed. The histogram of GO enrichment of differentially-expressed genes was presented.
Furthermore, to determine the biochemical metabolic pathways and signal transduction pathways involved in differentially expressed genes regulated by compound 3ag, KEGG pathway analysis was then performed.

[2] = 50 μM, vs LPS-stimulated group, of a total of 1915 genes

O[C@H]1Cc2ccccc2O[C@@H]1c1ccc(C(F)(F)F)cc1 [3i, (2R,3S)-2-(4-(trifluoromethyl)phenyl)chroman-3-ol]
effect on cell viability (RAW 264.7 cells): reduced viability
melting point: 114 to 115 °C

O[C@H]1Cc2c(F)cc(F)cc2O[C@@H]1c1ccc(F)c(F)c1 [3ai, (2R,3S)-2-(3,4-difluorophenyl)-5,7-difluorochroman-3-ol]
effect on cell viability (RAW 264.7 cells): reduced viability

O[C@H]1Cc2cc(Cl)cc(Cl)c2O[C@@H]1c1ccccc1 [3ag, (2R,3S)-6,8-dichloro-2-phenylchroman-3-ol]
inhibition rate of IL-1β secretion compared with enantiomer and racemic form (IL-1β): higher inhibition rates than their enantiomers
genes differentially regulated ([1]; 50 μM 24 h, then LPS 1 μg/mL 2 h, vs untreated LPS-stimulated group): 1098 genes
genes downregulated ([1]; 50 μM, vs LPS-stimulated group): 954 genes
genes upregulated ([1]; 50 μM, vs LPS-stimulated group): 144 genes
inflammation-related genes downregulated ([1]; 50 μM, vs LPS-stimulated group): 40 genes
genes downregulated, share of genes expressed [1, 2]: 49.8%
genes upregulated, share of genes expressed [1, 2]: 7.5%
GO enrichment of downregulated genes ([1]; vs LPS-induced group (FIG. 6)): associated with inflammatory response (GO: 0006954) and cellular response to lipopolysaccharide (GO: 0071222)
KEGG pathways of downregulated genes ([1]; vs LPS-induced group (FIG. 7a-b)): IL-17 signaling pathways, PI3K-Akt signaling pathway and TNF signaling pathway
melting point: 126 to 127 °C

O[C@H]1Cc2ccccc2O[C@@H]1c1cccs1 [3n, (2S,3S)-2-(thiophen-2-yl)chroman-3-ol]
effect on cell viability (RAW 264.7 cells): reduced viability
melting point: 94 to 95 °C

O[C@H]1Cc2cc(F)ccc2O[C@@H]1c1ccccc1 [3ad, (2R,3S)-6-fluoro-2-phenylchroman-3-ol]
effect on cell viability (RAW 264.7 cells): reduced viability
melting point: 110 to 111 °C

O[C@H]1Cc2ccccc2O[C@@H]1c1ccc2ccccc2c1 [3m, (2R,3S)-2-(naphthalen-2-yl)chroman-3-ol]
inhibition rate of IL-1β secretion compared with enantiomer and racemic form (IL-1β): higher inhibition rates than their enantiomers
inflammation-related genes downregulated ([1]; 50 μM, vs LPS-stimulated group): downregulated parts of inflammation-related genes
melting point: 141 to 142 °C

Source: patent US11952358B2, “Flavan-3-ol analogs and anti-inflammatory activity” (Hong Kong Baptist University, priority 2021, dated 2024)
